Measured values from PubChem BioAssay AID330 (DTP/NCI, 2004).
Where “and” joins values, the source holds several entries; their conditions need not be identical. Identical values can stand only once. Toxic doses and inconclusive results are not listed.

Tested on: P388 leukemia ip, CD2F1 mice, survival T/C
Assay: NCI In Vivo Anticancer Drug Screen. Data for tumor model P388 Leukemia (intraperitoneal) in CD2F1 (CDF1) mice
Conditions: endpoint: median survival time, higher = longer survival
Summary of the method: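 Mice carrying the transplanted tumor received test compound or vehicle. Survival was recorded in each group, and the value is the treated-group measurement divided by that of the vehicle-treated control group.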

[1] = dose: 30.0 mg/kg/injection, schedule: Q01DX005 (ip), vehicle: saline with Tween-80
[2] = dose: 60.0 mg/kg/injection, schedule: Q01DX005 (ip), vehicle: saline with Tween-80
[3] = dose: 50.0 mg/kg/injection, schedule: Q01DX009 (ip), vehicle: saline with Tween-80
[4] = dose: 100.0 mg/kg/injection, schedule: Q01DX009 (ip), vehicle: saline with Tween-80
[5] = dose: 50.0 mg/kg/injection, schedule: Q01DX005 (ip), vehicle: saline with Tween-80
[6] = dose: 120.0 mg/kg/injection, schedule: Q01DX005 (ip), vehicle: saline with Tween-80
[7] = dose: 240.0 mg/kg/injection, schedule: Q01DX005 (ip), vehicle: saline with Tween-80
[8] = dose: 200.0 mg/kg/injection, schedule: Q01DX009 (ip), vehicle: saline
[9] = dose: 25.0 mg/kg/injection, schedule: Q01DX009 (ip), vehicle: Klucel (hydroxypropylcellulose) (HPC)
[10] = dose: 50.0 mg/kg/injection, schedule: Q01DX009 (ip), vehicle: Klucel (hydroxypropylcellulose) (HPC)
[11] = dose: 200.0 mg/kg/injection, schedule: Q01DX009 (ip), vehicle: saline with Tween-80
[12] = dose: 400.0 mg/kg/injection, schedule: Q01DX009 (ip), vehicle: saline with Tween-80

## O=[N+]([O-])c1ccc(Sc2nc3ccccc3[nH]2)nc1
dose: 50.0 mg/kg/injection, schedule: Q01DX009 (ip), vehicle: suspension in saline
  T/C: 100 % of control
dose: 100.0 mg/kg/injection, schedule: Q01DX009 (ip), vehicle: suspension in saline
  T/C: 100 % of control
dose: 200.0 mg/kg/injection, schedule: Q01DX009 (ip), vehicle: suspension in saline
  T/C: 99 % of control

## CC(C(=O)O)N1C(=O)CNC1=O (stereo unspecified)
dose: 50.0 mg/kg/injection, schedule: Q01DX005 (ip), vehicle: Klucel (hydroxypropylcellulose) (HPC)
  T/C: 93 % of control
dose: 100.0 mg/kg/injection, schedule: Q01DX005 (ip), vehicle: Klucel (hydroxypropylcellulose) (HPC)
  T/C: 91 % of control
dose: 200.0 mg/kg/injection, schedule: Q01DX005 (ip), vehicle: Klucel (hydroxypropylcellulose) (HPC)
  T/C: 100 % of control

## C=C1C(=O)O[C@@H]2C[C@@H](C)[C@@H]3[C@@H](OC(C)=O)[C@@H](OC(C)=O)[C@H](OC(C)=O)[C@@]3(C)C[C@H]12
dose: 9.5 mg/kg/injection, schedule: Q01DX005 (ip), vehicle: Klucel (hydroxypropylcellulose) (HPC)
  T/C: 102 % of control
dose: 19.0 mg/kg/injection, schedule: Q01DX005 (ip), vehicle: Klucel (hydroxypropylcellulose) (HPC)
  T/C: 100 % of control
dose: 38.0 mg/kg/injection, schedule: Q01DX005 (ip), vehicle: Klucel (hydroxypropylcellulose) (HPC)
  T/C: 106 % of control
dose: 76.0 mg/kg/injection, schedule: Q01DX005 (ip), vehicle: Klucel (hydroxypropylcellulose) (HPC)
  T/C: 97 % of control

## ClCCN(Cc1ccccc1)Cc1ccccc1
dose: 3.13 mg/kg/injection, schedule: Q01DX009 (ip), vehicle: saline with Tween-80
  T/C: 104 % of control
dose: 6.25 mg/kg/injection, schedule: Q01DX009 (ip), vehicle: saline with Tween-80
  T/C: 119 % of control
dose: 12.5 mg/kg/injection, schedule: Q01DX009 (ip), vehicle: saline with Tween-80
  T/C: 123 % of control

## O=C(O)C(CSC(c1ccccc1)(c1ccccc1)c1ccccc1)NC(c1ccccc1)(c1ccccc1)c1ccccc1 (stereo unspecified)
dose: 12.5 mg/kg/injection, schedule: Q01DX009 (ip), vehicle: other
  T/C: 93 % of control
dose: 25.0 mg/kg/injection, schedule: Q01DX009 (ip), vehicle: other
  T/C: 94 % of control
dose: 50.0 mg/kg/injection, schedule: Q01DX009 (ip), vehicle: other
  T/C: 93 % of control
dose: 100.0 mg/kg/injection, schedule: Q01DX009 (ip), vehicle: other
  T/C: 98 % of control

## CCOC(=O)Cn1cnc2cc(C)c(C)cc21
dose: 100.0 mg/kg/injection, schedule: Q04DX003 (ip), vehicle: saline with Tween-80
  T/C: 90 % of control
dose: 200.0 mg/kg/injection, schedule: Q04DX003 (ip), vehicle: saline with Tween-80
  T/C: 100 % of control
dose: 400.0 mg/kg/injection, schedule: Q04DX003 (ip), vehicle: saline with Tween-80
  T/C: 90 % of control

## CCOC(=N)c1cn(C2OC(CO)C(O)C2O)c2ncnc(N)c12 (stereo unspecified)
dose: 0.2 mg/kg/injection, schedule: Q01DX009 (ip), vehicle: saline
  T/C: 161 % of control
dose: 0.25 mg/kg/injection, schedule: Q01DX009 (ip), vehicle: saline
  T/C: 150 % of control
dose: 0.3 mg/kg/injection, schedule: Q01DX009 (ip), vehicle: saline
  T/C: 157 % of control
dose: 0.5 mg/kg/injection, schedule: Q01DX009 (ip), vehicle: saline
  T/C: 159 % of control
dose: 1.0 mg/kg/injection, schedule: Q01DX009 (ip), vehicle: saline
  T/C: 118 % of control
dose: 2.0 mg/kg/injection, schedule: Q01DX009 (ip), vehicle: saline
  T/C: 90 % of control

## O=C(Nc1ccccc1Cl)Oc1ccc(C(=O)c2ccccc2)cc1
dose: 15.0 mg/kg/injection, schedule: Q01DX005 (ip), vehicle: saline with Tween-80
  T/C: 100 % of control
[1]
  T/C: 97 % of control
[2]
  T/C: 90 % of control

## CC(=NC(C)C)Nc1ccccc1
[3]
  T/C: 104 % of control
[4]
  T/C: 105 % of control

## N#Cc1nc(CC(=O)/C=C/c2ccccc2)c(CC(=O)/C=C/c2ccccc2)nc1C#N
dose: 60.0 mg/kg/injection, schedule: Q01DX005 (ip), vehicle: saline
  T/C: 103 % of control
dose: 120.0 mg/kg/injection, schedule: Q01DX005 (ip), vehicle: saline
  T/C: 103 % of control
dose: 240.0 mg/kg/injection, schedule: Q01DX005 (ip), vehicle: saline
  T/C: 112 % of control

## O=C(O)c1ccccc1C(=O)O
dose: 12.5 mg/kg/injection, schedule: Q01DX009 (ip), vehicle: water
  T/C: 102 % of control
dose: 25.0 mg/kg/injection, schedule: Q01DX009 (ip), vehicle: water
  T/C: 102 % of control
dose: 50.0 mg/kg/injection, schedule: Q01DX009 (ip), vehicle: water
  T/C: 98 % of control
dose: 100.0 mg/kg/injection, schedule: Q01DX009 (ip), vehicle: water
  T/C: 92 % of control
dose: 200.0 mg/kg/injection, schedule: Q01DX009 (ip), vehicle: water
  T/C: 88 % of control

## C(=N\N=C1c2ccccc2-c2ccccc21)/c1ccc2ccc3cccc4ccc1c2c34
dose: 12.5 mg/kg/injection, schedule: Q01DX005 (ip), vehicle: saline with Tween-80
  T/C: 93 % of control
dose: 25.0 mg/kg/injection, schedule: Q01DX005 (ip), vehicle: saline with Tween-80
  T/C: 95 % of control
[1]
  T/C: 88 % of control
[5]
  T/C: 91 % of control
[2]
  T/C: 86 % of control
[6]
  T/C: 88 % of control
[7]
  T/C: 89 % of control

## C=CC[Si](CC=C)(c1ccccc1)c1ccccc1
dose: 6.25 mg/kg/injection, schedule: Q01DX009 (ip), vehicle: saline
  T/C: 99 % of control and 96 % of control (2×)
[8]
  T/C: 98 % of control

## COc1ccc(CC(N)c2ccc(OC)c(OC)c2)cc1O (stereo unspecified)
[2]
  T/C: 114 % of control
[6]
  T/C: 100 % of control
[7]
  T/C: 97 % of control

## O=S(=O)([O-])NC1CCCCC1.O=S(=O)([O-])NC1CCCCC1.[Hg+2].[Hg+2].[Hg+2].[O-2].[O-2]
dose: 0.5 mg/kg/injection, schedule: Q04DX003 (ip), vehicle: saline
  T/C: 96 % of control
dose: 1.0 mg/kg/injection, schedule: Q04DX003 (ip), vehicle: saline
  T/C: 100 % of control
dose: 2.0 mg/kg/injection, schedule: Q04DX003 (ip), vehicle: saline
  T/C: 100 % of control

## NC1C(NO)OC(CO)C(O)C1O (stereo unspecified)
dose: 50.0 mg/kg/injection, schedule: Q01DX005 (ip), vehicle: saline
  T/C: 97 % of control
dose: 100.0 mg/kg/injection, schedule: Q01DX005 (ip), vehicle: saline
  T/C: 96 % of control
dose: 200.0 mg/kg/injection, schedule: Q01DX005 (ip), vehicle: saline
  T/C: 97 % of control

## O=P1(N(CCCl)CCCl)Nc2cccc3cccc(c23)N1
dose: 6.25 mg/kg/injection, schedule: Q01DX009 (ip), vehicle: Klucel (hydroxypropylcellulose) (HPC)
  T/C: 110 % of control and 111 % of control
dose: 12.5 mg/kg/injection, schedule: Q01DX009 (ip), vehicle: Klucel (hydroxypropylcellulose) (HPC)
  T/C: 103 % of control and 114 % of control
[9]
  T/C: 102 % of control and 119 % of control
[10]
  T/C: 120 % of control

## N=C(N)S(=O)O
dose: 25.0 mg/kg/injection, schedule: Q01DX009 (ip), vehicle: saline with Tween-80
  T/C: 99 % of control
[3]
  T/C: 100 % of control
dose: 50.0 mg/kg/injection, schedule: Q01DX009 (ip), vehicle: saline
  T/C: 96 % of control
[4]
  T/C: 98 % of control
[11]
  T/C: 101 % of control
[8]
  T/C: 95 % of control

## CC1(C)C=C(Cc2ccccc2)C(=O)c2ccccc21
[4]
  T/C: 90 % of control
[11]
  T/C: 100 % of control
[12]
  T/C: 95 % of control

## COc1c(C=O)c2c(c(C=O)c1OC)OCO2
[5]
  T/C: 100 % of control
dose: 100.0 mg/kg/injection, schedule: Q01DX005 (ip), vehicle: saline with Tween-80
  T/C: 104 % of control
dose: 200.0 mg/kg/injection, schedule: Q01DX005 (ip), vehicle: saline with Tween-80
  T/C: 99 % of control

## Clc1ccc(-c2noc(/C=C\c3ccccc3)n2)cc1
[9]
  T/C: 99 % of control and 86 % of control
[10]
  T/C: 98 % of control and 86 % of control
dose: 100.0 mg/kg/injection, schedule: Q01DX009 (ip), vehicle: Klucel (hydroxypropylcellulose) (HPC)
  T/C: 86 % of control and 97 % of control
dose: 200.0 mg/kg/injection, schedule: Q01DX009 (ip), vehicle: Klucel (hydroxypropylcellulose) (HPC)
  T/C: 95 % of control

## O=C1c2ccccc2C(=O)N1CCC[P+](c1ccccc1)(c1ccccc1)c1ccccc1
dose: 1.56 mg/kg/injection, schedule: Q01DX009 (ip), vehicle: saline
  T/C: 122 % of control

## CCOC(=O)c1cc(=O)n(C)c2ccc(OCC)cc12
[4]
  T/C: 90 % of control
[11]
  T/C: 95 % of control
[12]
  T/C: 90 % of control
